This passage reports IC50 and inhibition results from US20260015350A1, “AZAQUINAZOLINE PAN-KRAS INHIBITORS” (Mirati Therapeutics, Inc., priority 2022, published 2026).

By IC50 is commonly meant the point on the concentration scale where inhibition reaches its midpoint. Higher therefore signals lower potency. As usually defined, the inhibition is the change of the read-out against control, counted positive when it falls.

One assay has as its target T1, KRas^WT (Homo sapiens, UniProt P01116).
T1 construct: Biotinylated KRas (corresponding to amino acids 1-169, produced at Accelegan Inc.); biotin (biotinylated); purchased Accelegan Inc
Put plainly: KRas binding assay (TR-FRET tracer displacement), KRas WT. Conditions: TR-FRET tracer displacement, KRas WT.

In another assay the target is T2, KRas^G12A (Homo sapiens, UniProt P01116, G12A).
T2 construct: Biotinylated KRas (corresponding to amino acids 1-169, produced at Accelegan Inc.); biotin (biotinylated); purchased Accelegan Inc
Put plainly: KRas binding assay (TR-FRET tracer displacement), KRas G12A. Particulars: TR-FRET tracer displacement, KRas G12A. (Time-resolved FRET reads energy transfer from a long-lived donor to a nearby acceptor.)

In another assay the target is T3, KRas^G12C (Homo sapiens, UniProt P01116, G12C).
T3 construct: Biotinylated KRas (corresponding to amino acids 1-169, produced at Accelegan Inc.); biotin (biotinylated); purchased Accelegan Inc
Put plainly: KRas binding assay (TR-FRET tracer displacement), KRas G12C. Particulars: TR-FRET tracer displacement, KRas G12C.

The target in a further assay is T4, KRas^G12D (Homo sapiens, UniProt P01116, G12D).
T4 construct: Biotinylated KRas (corresponding to amino acids 1-169, produced at Accelegan Inc.); biotin (biotinylated); purchased Accelegan Inc
Put plainly: KRas binding assay (TR-FRET tracer displacement), KRas G12D.

In another assay the target is T5, KRas^G12R (Homo sapiens, UniProt P01116, G12R).
T5 construct: Biotinylated KRas (corresponding to amino acids 1-169, produced at Accelegan Inc.); biotin (biotinylated); purchased Accelegan Inc
Put plainly: KRas binding assay (TR-FRET tracer displacement), KRas G12R.

A further assay deals with T6, KRas^G12S (Homo sapiens, UniProt P01116, G12S).
T6 construct: Biotinylated KRas (corresponding to amino acids 1-169, produced at Accelegan Inc.); biotin (biotinylated); purchased Accelegan Inc
Put plainly: KRas binding assay (TR-FRET tracer displacement), KRas G12S. Particulars: TR-FRET tracer displacement, KRas G12S.

The target in a further assay is T7, KRas^G12V (Homo sapiens, UniProt P01116, G12V).
T7 construct: Biotinylated KRas (corresponding to amino acids 1-169, produced at Accelegan Inc.); biotin (biotinylated); purchased Accelegan Inc
Put plainly: KRas binding assay (TR-FRET tracer displacement), KRas G12V.

Another assay concerns the target T8, KRas^G13D (Homo sapiens, UniProt P01116, G13D).
T8 construct: Biotinylated KRas (corresponding to amino acids 1-169, produced at Accelegan Inc.); biotin (biotinylated); purchased Accelegan Inc
Put plainly: KRas binding assay (TR-FRET tracer displacement), KRas G13D. Particulars: TR-FRET tracer displacement, KRas G13D.

A further assay concerns the target T9, KRas^Q61H (Homo sapiens, UniProt P01116, Q61H).
T9 construct: Biotinylated KRas (corresponding to amino acids 1-169, produced at Accelegan Inc.); biotin (biotinylated); purchased Accelegan Inc
Put plainly: KRas binding assay (TR-FRET tracer displacement), KRas Q61H. Conditions: TR-FRET tracer displacement, KRas Q61H.

Assay [1] relates to KRas-mediated phosphorylation of ERK in AsPC-1 cells. Put plainly: Inhibition of KRas-mediated phosphorylation of ERK (Cisbio HTRF pERK), AsPC-1 cells. It is filed as cell-based. Conditions: Homo sapiens; for inhibition at 0.1 µM: ASPC1, 3 h, single point, 100 nM compound, 3 hrs, AsPC-1 cells; for IC50: ASPC1, AsPC-1 cells, HTRF pERK. A digest of the protocol: (§1)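 Phosphorylated ERK was quantified by HTRF using d2-conjugate and Cryptate antibodies added to lysates for 2 hrs at room temperature.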

Assay [2] relates to KRas-mediated phosphorylation of ERK in H727 cells. Put plainly: Inhibition of KRas-mediated phosphorylation of ERK (Cisbio HTRF pERK), H727 cells. Conditions: Homo sapiens; for inhibition at 0.1 µM: NCI-H727, 3 h, single point, 100 nM compound, 3 hrs, H727 cells; for IC50: NCI-H727, H727 cells, HTRF pERK. It is filed as cell-based. The essentials: as §1

T9 sequence (P01116 1-169 isoform P01116-2 Q61H): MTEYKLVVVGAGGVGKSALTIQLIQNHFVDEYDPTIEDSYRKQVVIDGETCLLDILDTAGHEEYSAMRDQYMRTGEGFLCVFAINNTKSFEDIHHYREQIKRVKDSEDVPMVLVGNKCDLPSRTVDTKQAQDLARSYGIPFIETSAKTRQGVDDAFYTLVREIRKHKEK
T5 sequence (P01116 1-169 isoform P01116-2 G12R): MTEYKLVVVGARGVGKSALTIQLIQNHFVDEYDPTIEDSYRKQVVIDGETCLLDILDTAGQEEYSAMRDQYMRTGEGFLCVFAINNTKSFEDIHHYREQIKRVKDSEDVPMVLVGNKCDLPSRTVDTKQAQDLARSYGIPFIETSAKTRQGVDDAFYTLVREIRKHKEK
T7 sequence (P01116 1-169 isoform P01116-2 G12V): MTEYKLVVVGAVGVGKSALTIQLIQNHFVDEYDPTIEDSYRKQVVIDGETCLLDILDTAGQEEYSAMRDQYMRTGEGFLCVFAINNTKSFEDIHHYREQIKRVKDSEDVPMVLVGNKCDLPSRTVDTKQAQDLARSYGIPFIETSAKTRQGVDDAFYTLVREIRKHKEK
T3 sequence (P01116 1-169 isoform P01116-2 G12C): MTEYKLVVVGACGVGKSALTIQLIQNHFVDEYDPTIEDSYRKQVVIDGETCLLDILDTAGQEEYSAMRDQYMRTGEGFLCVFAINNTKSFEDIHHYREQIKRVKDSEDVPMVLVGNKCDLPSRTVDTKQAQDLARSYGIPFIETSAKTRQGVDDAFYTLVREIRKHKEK
T4 sequence (P01116 1-169 isoform P01116-2 G12D): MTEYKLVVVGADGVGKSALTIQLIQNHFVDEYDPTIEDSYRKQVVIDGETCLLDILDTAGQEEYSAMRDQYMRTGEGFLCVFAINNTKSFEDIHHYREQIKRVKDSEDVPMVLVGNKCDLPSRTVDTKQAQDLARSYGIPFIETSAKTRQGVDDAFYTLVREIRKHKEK
T6 sequence (P01116 1-169 isoform P01116-2 G12S): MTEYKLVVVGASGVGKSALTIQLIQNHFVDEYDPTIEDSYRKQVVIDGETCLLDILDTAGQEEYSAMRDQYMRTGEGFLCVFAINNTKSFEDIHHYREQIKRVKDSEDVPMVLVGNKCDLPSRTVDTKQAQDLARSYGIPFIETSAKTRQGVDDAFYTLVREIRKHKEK
T2 sequence (P01116 1-169 isoform P01116-2 G12A): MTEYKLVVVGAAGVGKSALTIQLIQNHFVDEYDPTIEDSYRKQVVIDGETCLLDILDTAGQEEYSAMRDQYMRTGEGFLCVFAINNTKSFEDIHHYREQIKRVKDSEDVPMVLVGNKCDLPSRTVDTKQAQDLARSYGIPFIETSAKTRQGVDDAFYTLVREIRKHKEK
T8 sequence (P01116 1-169 isoform P01116-2 G13D): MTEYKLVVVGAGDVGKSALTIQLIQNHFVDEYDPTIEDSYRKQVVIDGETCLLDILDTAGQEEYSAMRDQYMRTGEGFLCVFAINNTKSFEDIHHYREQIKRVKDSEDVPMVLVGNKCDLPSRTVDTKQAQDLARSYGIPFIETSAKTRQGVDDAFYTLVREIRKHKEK
T1 sequence (P01116 1-169 isoform P01116-2): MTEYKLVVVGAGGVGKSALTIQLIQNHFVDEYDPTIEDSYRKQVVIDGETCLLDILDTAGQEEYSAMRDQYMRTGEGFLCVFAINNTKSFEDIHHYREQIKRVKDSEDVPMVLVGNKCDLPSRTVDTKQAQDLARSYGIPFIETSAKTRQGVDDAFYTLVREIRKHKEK

`Cc1c(O)cc(-c2ncc3c(N4C[C@@H]5C[C@H](C4)[C@H](O)C5)nc(OC[C@@]45CCCN4C[C@H](F)C5)nc3c2F)c2ccccc12` [Example 790, (1R,5R,6R)-3-(8-fluoro-2-(((2R,7aS)-2-fluorohexahydro-1H-pyrrolizin-7a-yl)methoxy)-7-(3-hydroxy-4-methylnaphthalen-1-yl)pyrido[4,3-d]pyrimidin-4-yl)-3-azabicyclo[3.2.1]octan-6-ol]: the IC50 at KRas^WT was determined as 10600 nM; at KRas^G12A it was 8020 nM; at KRas^G12C, 9220 nM; at KRas^G12D, 11700 nM; at KRas^G12R it was 5650 nM; at KRas^G12S, 5660 nM. Moreover, the IC50 at KRas^G12V came out at 3740 nM; at KRas^G13D it was 7770 nM; at KRas^Q61H, 11000 nM. Further, the inhibition at 0.1 µM is 9% in [1] and 15% in assay [2].

Turning to `Cc1cc2[nH]ncc2c(-c2ncc3c(N4CCC[C@]5(C4)NC(=O)NC5=O)nc(OC[C@@]45CCCN4C[C@H](F)C5)nc3c2F)c1C` [Example 731, (5R)-7-(7-(5,6-dimethyl-1H-indazol-4-yl)-8-fluoro-2-(((2R,7aS)-2-fluorohexahydro-1H-pyrrolizin-7a-yl)methoxy)pyrido[4,3-d]pyrimidin-4-yl)-1,3,7-triazaspiro[4.5]decane-2,4-dione], the IC50 at KRas^WT came out at 12 nM; at KRas^G12A, 13 nM; at KRas^G12C, 11 nM; at KRas^G12D, 15 nM; on KRas^G12R, 10 nM; on KRas^G12S, 12 nM. In addition, the IC50 at KRas^G12V is 8 nM; on KRas^G13D, 13 nM; at KRas^Q61H it was 13 nM; in assay [1] it was greater than 10000 nM; in assay [2], greater than 10000 nM.

For `Cc1cc2[nH]ncc2c(-c2ncc3c(N4CCC[C@]5(C4)NC(=O)NC5=O)nc(OCC4(CN(C)C)CC4)nc3c2F)c1C` [Example 732, (5R)-7-(7-(5,6-dimethyl-1H-indazol-4-yl)-2-((1-((dimethylamino)methyl)cyclopropyl)methoxy)-8-fluoropyrido[4,3-d]pyrimidin-4-yl)-1,3,7-triazaspiro[4.5]decane-2,4-dione], the IC50 is 50 nM at KRas^WT; 61 nM on KRas^G12A; 43 nM on KRas^G12C; 113 nM at KRas^G12D; 47 nM on KRas^G12R; 63 nM on KRas^G12S. For the same molecule, the IC50 was 31 nM at KRas^G12V; 60 nM at KRas^G13D; 79 nM at KRas^Q61H; greater than 10000 nM in assay [1]; greater than 10000 nM in [2].

Regarding `Cc1cc2[nH]ncc2c(-c2ncc3c(N4CCCn5nc(C(=O)N(C)C)cc5C4)nc(OCC45CCCN4CCC5)nc3c2F)c1C` [Example 730, 5-(7-(5,6-dimethyl-1H-indazol-4-yl)-8-fluoro-2-((hexahydro-1H-pyrrolizin-7a-yl)methoxy)pyrido[4,3-d]pyrimidin-4-yl)-N,N-dimethyl-5,6,7,8-tetrahydro-4H-pyrazolo[1,5-a][1,4]diazepine-2-carboxamide], the IC50 came to 343 nM at KRas^WT; 251 nM on KRas^G12A; 131 nM at KRas^G12C; 35 nM at KRas^G12D; 203 nM on KRas^G12R; 113 nM on KRas^G12S. For the same molecule, the IC50 at KRas^G12V is 75 nM; on KRas^G13D, 513 nM; on KRas^Q61H, 444 nM; in assay [1] it was greater than 10000 nM; in assay [2], greater than 10000 nM.

On to `O=C1NCC2(CCCN(c3nc(OC[C@@]45CCCN4C[C@H](F)C5)nc4c(F)c(-c5c6ccccc6cc6[nH]ncc56)ncc34)C2)N1` (stereo partly drawn) [Example 760, 7-(7-(1H-benzo[f]indazol-4-yl)-8-fluoro-2-(((2R,7aS)-2-fluorohexahydro-1H-pyrrolizin-7a-yl)methoxy)pyrido[4,3-d]pyrimidin-4-yl)-1,3,7-triazaspiro[4.5]decan-2-one], for which the IC50 came out at 88 nM at KRas^WT; 91 nM on KRas^G12A; 73 nM at KRas^G12C; 76 nM at KRas^G12D; 170 nM at KRas^G12R; 76 nM on KRas^G12S. Moreover, the IC50 on KRas^G12V is 67 nM; on KRas^G13D, 72 nM; on KRas^Q61H it was 66 nM; in assay [1] it was greater than 10000 nM; in [2], greater than 10000 nM.

Regarding `CC1(O)COCCN(c2nc(OCC34CCCN3CCC4)nc3c(F)c(-c4cc(O)cc(Cl)c4C4CC4)ncc23)C1` (racemic) [Example 740, rac-(R)-4-(7-(3-chloro-2-cyclopropyl-5-hydroxyphenyl)-8-fluoro-2-((tetrahydro-1H-pyrrolizin-7a(5H)-yl)methoxy)pyrido[4,3-d]pyrimidin-4-yl)-6-methyl-1,4-oxazepan-6-ol], the IC50 is 9 nM on KRas^WT; 10 nM on KRas^G12A; 7 nM at KRas^G12C; 4 nM at KRas^G12D; 11 nM on KRas^G12R; 9 nM at KRas^G12S. Further, the IC50 at KRas^G12V amounted to 5 nM; on KRas^G13D it was 8 nM; at KRas^Q61H, 6 nM; in assay [1], 2630 nM; in assay [2], 3160 nM.

Take `Oc1cc(-c2ncc3c(N4C[C@@H]5C[C@H](C4)[C@H](O)C5)nc(OC[C@@]45CCCN4C[C@H](F)C5)nc3c2F)c2ccccc2c1C(F)(F)F` [Example 782, (1R,5R,6R)-3-(8-fluoro-2-(((2R,7aS)-2-fluorohexahydro-1H-pyrrolizin-7a-yl)methoxy)-7-(3-hydroxy-4-(trifluoromethyl)naphthalen-1-yl)pyrido[4,3-d]pyrimidin-4-yl)-3-azabicyclo[3.2.1]octan-6-ol]: the IC50 on KRas^WT was found to be 4220 nM; on KRas^G12A it was 4370 nM; on KRas^G12C, 2780 nM; at KRas^G12D it was 4650 nM; on KRas^G12R it was 3740 nM; on KRas^G12S, 2570 nM. Further, the IC50 on KRas^G12V was 2040 nM; on KRas^G13D, 2550 nM; on KRas^Q61H it was 4050 nM. Also, the figures for the inhibition at 0.1 µM in [1] and in assay [2] were 5% and -11%, respectively.

Take `O=C1NCC2(CCCN(c3nc(OCC45CCCN4CCC5)nc4c(F)c(-c5cc(O)cc(Cl)c5C5CC5)ncc34)C2)N1` (centres unmarked) [Example 741, 7-(7-(3-chloro-2-cyclopropyl-5-hydroxyphenyl)-8-fluoro-2-((hexahydro-1H-pyrrolizin-7a-yl)methoxy)pyrido[4,3-d]pyrimidin-4-yl)-1,3,7-triazaspiro[4.5]decan-2-one]: the concentration for half-maximal inhibition (IC50) is less than 2 nM on KRas^WT; 2 nM on KRas^G12A; less than 2 nM at KRas^G12C; less than 2 nM on KRas^G12D; less than 2 nM on KRas^G12R; less than 2 nM at KRas^G12S. The IC50 at KRas^G12V was less than 2 nM; at KRas^G13D it was 3 nM; at KRas^Q61H, less than 2 nM; in assay [1], greater than 10000 nM; in assay [2], greater than 10000 nM.

In the case of `Cc1cc2[nH]ncc2c(-c2ncc3c(N4CC5CC(O)C(C5)C4)nc(OCC45CCCN4CCC5)nc3c2F)c1C` (centres unmarked) [Example 725, 3-(7-(5,6-dimethyl-1H-indazol-4-yl)-8-fluoro-2-((tetrahydro-1H-pyrrolizin-7a(5H)-yl)methoxy)pyrido[4,3-d]pyrimidin-4-yl)-3-azabicyclo[3.2.1]octan-6-ol], the IC50 at KRas^WT is 965 nM; at KRas^G12A, 763 nM; at KRas^G12C, 812 nM; at KRas^G12D it was 1610 nM; on KRas^G12R, 441 nM; at KRas^G12S, 494 nM. Besides, the IC50 on KRas^G12V is 410 nM; at KRas^G13D, 1120 nM; on KRas^Q61H, 1210 nM; in [1], greater than 10000 nM; in assay [2] it was greater than 10000 nM.

In the case of `Oc1cc(Cl)c(C2CC2)c(-c2ncc3c(N4CCC[C@]5(C4)C[C@@H](O)C5)nc(OCC45CCCN4CCC5)nc3c2F)c1` [Example 743, (2r,4s)-6-(7-(3-chloro-2-cyclopropyl-5-hydroxyphenyl)-8-fluoro-2-((tetrahydro-1H-pyrrolizin-7a(5H)-yl)methoxy)pyrido[4,3-d]pyrimidin-4-yl)-6-azaspiro[3.5]nonan-2-ol], the half-maximal inhibitory concentration (IC50) at KRas^WT amounted to 9 nM; at KRas^G12A it was 8 nM; on KRas^G12C, 6 nM; on KRas^G12D, 8 nM; at KRas^G12R, 20 nM; on KRas^G12S, 8 nM. In addition, the IC50 at KRas^G12V came to 3 nM; at KRas^G13D, 9 nM; at KRas^Q61H, 7 nM; in [1] it was 3690 nM; in assay [2], 1100 nM.
